In ChEMBL document CHEMBL1201862, “PubChem BioAssay data set” (2004):
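Exposure lasted 48 hours, with cells grown in 96-well plates and compounds tested at five concentrations. Abbreviation: GI50, concentration required for 50% inhibition of growth.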 The source made the active and inactive calls. Cut-off read from the data, not from the text of the source: active = GI50 up to about 1.1 µM and inactive = higher.

Key:
Experiment in all cases: NCI anticancer screen, dose series, 48 h
[1] = system: NCI-H522
[2] = system: HCT-116
[3] = system: CAKI-1
[4] = system: SK-OV-3
[5] = system: SN12C
[6] = system: MDA-MB-231
[7] = system: OVCAR-4
[8] = system: PC-3
[9] = system: EKVX
[10] = system: A549
[11] = system: TK-10
[12] = system: U-251
[13] = system: HOP-62
[14] = system: OVCAR-3
[15] = system: A498
[16] = system: IGROV-1
[17] = system: OVCAR-8
[18] = system: Malme-3M
[19] = system: RXF 393
[20] = system: M14
[21] = system: SK-MEL-5
[22] = system: LOX IMVI
[23] = system: SNB-19
[24] = system: HT-29
[25] = system: SR
[26] = system: NCI/ADR-RES
[27] = system: NCI-H226
[28] = system: BT-549
[29] = system: SK-MEL-28
[30] = system: MOLT-4
[31] = system: OVCAR-5
[32] = system: UACC-62
[33] = system: SNB-75
[34] = system: MDA-MB-435
[35] = system: COLO 205
[36] = system: SW-620
[37] = system: HL-60
[38] = system: SF-295
[39] = system: SF-268
[40] = system: K562
[41] = system: RPMI-8226
[42] = system: HOP-92
[43] = system: NCI-H460
[44] = system: MCF7
[45] = system: MDA-N
[46] = system: 786-0
[47] = system: ACHN
[48] = system: Hs-578T
[49] = system: DU-145
[50] = system: KM12
[51] = system: HCT-15
[52] = system: T47D
[53] = system: SF-539
[54] = system: NCI-H23
[55] = system: UO-31
[56] = system: SK-MEL-2
[57] = system: UACC-257
[58] = system: CCRF-CEM

## CC(NC(=O)C(Cc1ccc(OC(=O)c2ccccc2)cc1)NC(=O)OC(C)(C)C)C(=O)NCC(=O)NC(Cc1ccccc1)NC(=O)OCc1ccccc1 (stereo not given)
[1]
  GI50: > 100 µM (inactive)
[2]
  GI50: > 100 µM (inactive)
[3]
  GI50: > 100 µM (inactive)
[4]
  GI50: > 100 µM (inactive)
[5]
  GI50: > 100 µM (inactive)
[6]
  GI50: > 100 µM (inactive)
[7]
  GI50: 15.8 µM (inactive)
[8]
  GI50: > 100 µM (inactive)
[9]
  GI50: > 100 µM (inactive)
[10]
  GI50: > 100 µM (inactive)
[11]
  GI50: > 100 µM (inactive)
[12]
  GI50: > 100 µM (inactive)
[13]
  GI50: > 100 µM (inactive)
[14]
  GI50: > 100 µM (inactive)
[15]
  GI50: 28.5 µM (inactive)
[16]
  GI50: > 100 µM (inactive)
[17]
  GI50: > 100 µM (inactive)
[18]
  GI50: > 100 µM (inactive)
[19]
  GI50: > 100 µM (inactive)
[20]
  GI50: > 100 µM (inactive)
[21]
  GI50: 71.6 µM (inactive)
[22]
  GI50: > 100 µM (inactive)
[23]
  GI50: > 100 µM (inactive)
[24]
  GI50: > 100 µM (inactive)
[25]
  GI50: 87.5 µM (inactive)
[26]
  GI50: > 10 µM (inactive)
[27]
  GI50: > 100 µM (inactive)
[28]
  GI50: > 100 µM (inactive)
[29]
  GI50: > 100 µM (inactive)
[30]
  GI50: 62.7 µM (inactive)
[31]
  GI50: > 100 µM (inactive)
[32]
  GI50: > 100 µM (inactive)
[33]
  GI50: > 100 µM (inactive)
[34]
  GI50: > 100 µM (inactive)
[35]
  GI50: > 100 µM (inactive)
[36]
  GI50: > 100 µM (inactive)
[37]
  GI50: > 100 µM (inactive)
[38]
  GI50: > 100 µM (inactive)
[39]
  GI50: > 100 µM (inactive)
[40]
  GI50: > 100 µM (inactive)
[41]
  GI50: 50.6 µM (inactive)
[42]
  GI50: > 100 µM (inactive)
[43]
  GI50: > 100 µM (inactive)
[44]
  GI50: > 100 µM (inactive)
[45]
  GI50: > 100 µM (inactive)
[46]
  GI50: > 100 µM (inactive)
[47]
  GI50: > 100 µM (inactive)
[48]
  GI50: 59.8 µM (inactive)
[49]
  GI50: > 100 µM (inactive)
[50]
  GI50: > 100 µM (inactive)
[51]
  GI50: > 100 µM
[52]
  GI50: > 100 µM (inactive)
[53]
  GI50: > 100 µM (inactive)
[54]
  GI50: > 100 µM (inactive)
[55]
  GI50: > 100 µM (inactive)

## COc1ccc(N2C(=O)C3c4[nH]c5ccccc5c4C4CCC(c5ccccc5)CC4C3C2=O)cc1 (stereo not given)
[1]
  GI50: 10.2 µM (inactive)
[2]
  GI50: > 39.8 µM (inactive)
[3]
  GI50: 17.4 µM (inactive)
[4]
  GI50: 20.2 µM (inactive)
[5]
  GI50: 28.5 µM (inactive)
[6]
  GI50: 10.9 µM (inactive)
[7]
  GI50: 8.87 µM (inactive)
[8]
  GI50: 36.2 µM (inactive)
[9]
  GI50: 25.1 µM (inactive)
[10]
  GI50: 26.5 µM (inactive)
[11]
  GI50: 12.8 µM (inactive)
[12]
  GI50: 5.92 µM (inactive)
[13]
  GI50: 7.28 µM (inactive)
[14]
  GI50: > 64 µM (inactive)
[15]
  GI50: 29 µM (inactive)
[16]
  GI50: 30.8 µM (inactive)
[17]
  GI50: 17.3 µM (inactive)
[56]
  GI50: 23.4 µM (inactive)
[18]
  GI50: 3.38 µM (inactive)
[19]
  GI50: 10.2 µM (inactive)
[20]
  GI50: 30.5 µM (inactive)
[21]
  GI50: 26.1 µM (inactive)
[57]
  GI50: 48.4 µM (inactive)
[22]
  GI50: > 32.5 µM (inactive)
[23]
  GI50: 12.5 µM (inactive)
[24]
  GI50: > 57.5 µM (inactive)
[25]
  GI50: 0.424 µM (active)
[26]
  GI50: > 34.2 µM (inactive)
[27]
  GI50: > 45.7 µM (inactive)
[28]
  GI50: 31.4 µM (inactive)
[29]
  GI50: > 54.6 µM (inactive)
[58]
  GI50: 6 µM (inactive)
[30]
  GI50: 26.6 µM (inactive)
[31]
  GI50: 45.1 µM (inactive)
[32]
  GI50: 24.8 µM (inactive)
[33]
  GI50: 6.04 µM (inactive)
[34]
  GI50: > 50.5 µM (inactive)
[35]
  GI50: > 40.4 µM (inactive)
[36]
  GI50: > 32.7 µM (inactive)
[38]
  GI50: 22.9 µM (inactive)
[39]
  GI50: 10.4 µM (inactive)
[40]
  GI50: 11.2 µM (inactive)
[41]
  GI50: 18.5 µM (inactive)
[42]
  GI50: 16.1 µM (inactive)
[43]
  GI50: 10.3 µM (inactive)
[44]
  GI50: 39 µM (inactive)
[45]
  GI50: 52.8 µM (inactive)
[46]
  GI50: 7.76 µM (inactive)
[47]
  GI50: 12.3 µM (inactive)
[48]
  GI50: 5.74 µM (inactive)
[49]
  GI50: 57.3 µM (inactive)
[50]
  GI50: > 70.5 µM (inactive)
[51]
  GI50: 36 µM
[52]
  GI50: > 66.4 µM (inactive)
[53]
  GI50: 1.48 µM (inactive)
[54]
  GI50: 19.8 µM (inactive)
[55]
  GI50: 46.8 µM (inactive)

## Nc1nc(=O)c2c([nH]1)NCC(CCNc1ccc(C(=O)O)cc1)N2 (stereo not given)
[1]
  GI50: > 100 µM (inactive)
[2]
  GI50: > 100 µM (inactive)
[3]
  GI50: > 100 µM (inactive)
[4]
  GI50: > 100 µM (inactive)
[5]
  GI50: > 100 µM (inactive)
[6]
  GI50: > 100 µM (inactive)
[7]
  GI50: > 100 µM (inactive)
[8]
  GI50: > 100 µM (inactive)
[9]
  GI50: > 100 µM (inactive)
[10]
  GI50: > 100 µM (inactive)
[11]
  GI50: > 100 µM (inactive)
[12]
  GI50: > 100 µM (inactive)
[13]
  GI50: > 100 µM (inactive)
[14]
  GI50: > 100 µM (inactive)
[15]
  GI50: > 100 µM (inactive)
[16]
  GI50: > 100 µM (inactive)
[17]
  GI50: > 100 µM (inactive)
[56]
  GI50: > 100 µM (inactive)
[18]
  GI50: > 100 µM (inactive)
[19]
  GI50: > 100 µM (inactive)
[20]
  GI50: > 100 µM (inactive)
[21]
  GI50: > 100 µM (inactive)
[57]
  GI50: > 100 µM (inactive)
[22]
  GI50: > 100 µM (inactive)
[23]
  GI50: > 100 µM (inactive)
[24]
  GI50: > 100 µM (inactive)
[25]
  GI50: > 100 µM (inactive)
[26]
  GI50: > 100 µM (inactive)
[27]
  GI50: > 100 µM (inactive)
[28]
  GI50: > 100 µM (inactive)
[29]
  GI50: > 100 µM (inactive)
[58]
  GI50: > 100 µM (inactive)
[30]
  GI50: > 100 µM (inactive)
[31]
  GI50: > 100 µM (inactive)
[32]
  GI50: > 100 µM (inactive)
[33]
  GI50: > 100 µM (inactive)
[34]
  GI50: > 100 µM (inactive)
[35]
  GI50: > 100 µM (inactive)
[36]
  GI50: > 100 µM (inactive)
[37]
  GI50: 78 µM (inactive)
[38]
  GI50: > 100 µM (inactive)
[39]
  GI50: > 100 µM (inactive)
[40]
  GI50: > 100 µM (inactive)
[41]
  GI50: > 100 µM (inactive)
[42]
  GI50: > 100 µM (inactive)
[43]
  GI50: > 100 µM (inactive)
[44]
  GI50: > 100 µM (inactive)
[45]
  GI50: > 100 µM (inactive)
[46]
  GI50: > 100 µM (inactive)
[47]
  GI50: > 100 µM (inactive)
[48]
  GI50: > 100 µM (inactive)
[49]
  GI50: > 100 µM (inactive)
[50]
  GI50: > 100 µM (inactive)
[51]
  GI50: > 100 µM
[52]
  GI50: > 100 µM (inactive)
[53]
  GI50: > 100 µM (inactive)
[54]
  GI50: > 100 µM (inactive)
[55]
  GI50: > 100 µM (inactive)
